ChEMBL document CHEMBL5291721, “A preclinical secondary pharmacology resource illuminates target-adverse drug reaction associations of marketed drugs” (Nat Commun, 2023)

How the values were obtained:
[1] = molecular target: Voltage-gated inwardly rectifying potassium channel KCNH2 (Homo sapiens, UniProt Q12809); type: functional; settings: read-out: AC50
[2] = molecular target: 5-hydroxytryptamine receptor 2B (Homo sapiens, UniProt P41595); type: functional, cell-based
D(1A) dopamine receptor = D(1A) dopamine receptor (Homo sapiens, UniProt P21728)
[3] = molecular target: T1, Muscarinic acetylcholine receptor M2 (Homo sapiens, UniProt P08172)
T1 sequence (P08172 whole entry): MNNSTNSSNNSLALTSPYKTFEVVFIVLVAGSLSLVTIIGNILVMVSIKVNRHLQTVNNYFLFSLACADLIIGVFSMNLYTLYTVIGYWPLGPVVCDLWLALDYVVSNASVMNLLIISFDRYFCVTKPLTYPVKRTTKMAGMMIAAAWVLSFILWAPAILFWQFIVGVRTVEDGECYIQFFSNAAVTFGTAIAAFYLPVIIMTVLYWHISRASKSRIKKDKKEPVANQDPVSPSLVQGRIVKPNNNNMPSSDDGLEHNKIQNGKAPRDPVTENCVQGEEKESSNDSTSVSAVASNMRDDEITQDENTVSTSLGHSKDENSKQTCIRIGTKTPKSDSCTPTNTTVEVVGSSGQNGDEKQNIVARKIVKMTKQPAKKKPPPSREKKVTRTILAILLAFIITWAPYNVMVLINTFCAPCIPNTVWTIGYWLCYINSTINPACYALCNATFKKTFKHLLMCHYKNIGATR

Prothrombin = Prothrombin (Homo sapiens, UniProt P00734); type: functional
Estrogen receptor = molecular target: T2, Estrogen receptor (Homo sapiens, UniProt P03372)
T2 sequence (P03372 whole entry): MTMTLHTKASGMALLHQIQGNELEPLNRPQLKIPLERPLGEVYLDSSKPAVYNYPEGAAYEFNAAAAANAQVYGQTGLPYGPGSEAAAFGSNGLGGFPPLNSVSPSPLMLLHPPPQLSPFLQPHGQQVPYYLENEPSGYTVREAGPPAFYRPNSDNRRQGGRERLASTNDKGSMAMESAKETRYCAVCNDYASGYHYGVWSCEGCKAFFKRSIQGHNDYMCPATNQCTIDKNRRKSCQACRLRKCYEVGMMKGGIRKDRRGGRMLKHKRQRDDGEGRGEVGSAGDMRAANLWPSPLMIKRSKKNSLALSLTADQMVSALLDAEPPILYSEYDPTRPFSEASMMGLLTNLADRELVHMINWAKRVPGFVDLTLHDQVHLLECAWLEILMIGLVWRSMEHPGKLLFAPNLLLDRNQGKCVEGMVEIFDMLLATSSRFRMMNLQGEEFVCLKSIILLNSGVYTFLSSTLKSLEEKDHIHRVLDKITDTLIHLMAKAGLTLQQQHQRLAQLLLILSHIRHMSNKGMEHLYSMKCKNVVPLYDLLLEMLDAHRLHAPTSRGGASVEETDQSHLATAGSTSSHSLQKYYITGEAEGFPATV

[4] = molecular target: T3, 5-hydroxytryptamine receptor 1A (Homo sapiens, UniProt P08908)
T3 sequence (P08908 whole entry): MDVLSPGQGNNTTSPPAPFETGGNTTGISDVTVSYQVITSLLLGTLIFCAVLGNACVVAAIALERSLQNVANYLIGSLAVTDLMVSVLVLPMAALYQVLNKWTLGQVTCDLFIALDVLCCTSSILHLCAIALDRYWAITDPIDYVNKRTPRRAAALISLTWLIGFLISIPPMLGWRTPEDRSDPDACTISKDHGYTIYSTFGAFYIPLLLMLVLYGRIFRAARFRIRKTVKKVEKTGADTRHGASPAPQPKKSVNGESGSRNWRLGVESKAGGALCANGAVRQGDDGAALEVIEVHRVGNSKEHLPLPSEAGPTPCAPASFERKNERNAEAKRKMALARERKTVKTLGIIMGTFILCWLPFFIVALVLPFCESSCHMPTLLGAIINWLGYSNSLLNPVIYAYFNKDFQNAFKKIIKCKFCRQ

[5] = molecular target: T4, Alpha-2A adrenergic receptor (Homo sapiens, UniProt P08913)
T4 sequence (P08913 whole entry): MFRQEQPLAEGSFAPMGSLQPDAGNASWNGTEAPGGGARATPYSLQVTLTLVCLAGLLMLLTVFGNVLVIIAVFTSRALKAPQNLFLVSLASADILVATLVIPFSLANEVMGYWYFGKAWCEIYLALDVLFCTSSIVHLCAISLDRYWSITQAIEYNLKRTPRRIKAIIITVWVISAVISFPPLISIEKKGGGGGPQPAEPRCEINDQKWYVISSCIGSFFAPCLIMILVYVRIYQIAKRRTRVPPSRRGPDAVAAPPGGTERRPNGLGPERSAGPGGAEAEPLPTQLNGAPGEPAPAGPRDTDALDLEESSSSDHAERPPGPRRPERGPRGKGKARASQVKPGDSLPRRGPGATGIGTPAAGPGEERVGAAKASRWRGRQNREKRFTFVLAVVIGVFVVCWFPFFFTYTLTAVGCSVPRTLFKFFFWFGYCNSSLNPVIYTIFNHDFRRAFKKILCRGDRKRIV

[6] = molecular target: Prostaglandin G/H synthase 1 (Homo sapiens, UniProt P23219); type: functional
[7] = molecular target: T5, Amine oxidase [flavin-containing] A (Homo sapiens, UniProt P21397); type: functional
T5 sequence (P21397 whole entry): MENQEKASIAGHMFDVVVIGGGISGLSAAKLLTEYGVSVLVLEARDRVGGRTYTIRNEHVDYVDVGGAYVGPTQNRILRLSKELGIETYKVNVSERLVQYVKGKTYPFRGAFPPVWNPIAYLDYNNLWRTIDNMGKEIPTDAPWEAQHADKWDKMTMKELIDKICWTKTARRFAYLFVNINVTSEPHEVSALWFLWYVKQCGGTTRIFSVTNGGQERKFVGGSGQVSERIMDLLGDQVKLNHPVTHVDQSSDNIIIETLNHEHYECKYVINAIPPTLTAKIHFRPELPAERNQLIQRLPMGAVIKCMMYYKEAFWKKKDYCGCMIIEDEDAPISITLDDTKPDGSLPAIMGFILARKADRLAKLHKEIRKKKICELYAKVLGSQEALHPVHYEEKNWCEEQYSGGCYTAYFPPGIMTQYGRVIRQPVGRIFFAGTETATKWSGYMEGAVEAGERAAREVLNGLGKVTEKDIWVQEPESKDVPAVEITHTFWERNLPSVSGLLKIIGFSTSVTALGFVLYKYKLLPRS

Mu-type opioid receptor = Mu-type opioid receptor (Homo sapiens, UniProt P35372)
Histamine H3 receptor = Histamine H3 receptor (Homo sapiens, UniProt Q9Y5N1)
[8] = molecular target: cGMP-inhibited 3',5'-cyclic phosphodiesterase 3A (Homo sapiens, UniProt Q14432); type: functional
Also: assay procedure not described here.

Sequence of Histamine H3 receptor (Q9Y5N1 whole entry): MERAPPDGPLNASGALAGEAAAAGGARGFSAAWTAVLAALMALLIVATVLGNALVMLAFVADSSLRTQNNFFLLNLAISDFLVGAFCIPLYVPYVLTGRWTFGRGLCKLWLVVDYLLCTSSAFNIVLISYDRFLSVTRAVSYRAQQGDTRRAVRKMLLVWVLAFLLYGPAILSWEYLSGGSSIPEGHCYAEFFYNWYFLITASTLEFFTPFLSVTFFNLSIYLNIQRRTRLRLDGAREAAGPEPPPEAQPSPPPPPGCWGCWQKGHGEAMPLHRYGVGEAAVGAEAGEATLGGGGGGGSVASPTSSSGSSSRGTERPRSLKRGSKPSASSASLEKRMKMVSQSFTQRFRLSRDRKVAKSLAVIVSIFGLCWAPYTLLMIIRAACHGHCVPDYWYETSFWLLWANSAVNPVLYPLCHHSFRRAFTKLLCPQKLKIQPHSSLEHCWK
Sequence of 5-hydroxytryptamine receptor 2B (P41595 whole entry): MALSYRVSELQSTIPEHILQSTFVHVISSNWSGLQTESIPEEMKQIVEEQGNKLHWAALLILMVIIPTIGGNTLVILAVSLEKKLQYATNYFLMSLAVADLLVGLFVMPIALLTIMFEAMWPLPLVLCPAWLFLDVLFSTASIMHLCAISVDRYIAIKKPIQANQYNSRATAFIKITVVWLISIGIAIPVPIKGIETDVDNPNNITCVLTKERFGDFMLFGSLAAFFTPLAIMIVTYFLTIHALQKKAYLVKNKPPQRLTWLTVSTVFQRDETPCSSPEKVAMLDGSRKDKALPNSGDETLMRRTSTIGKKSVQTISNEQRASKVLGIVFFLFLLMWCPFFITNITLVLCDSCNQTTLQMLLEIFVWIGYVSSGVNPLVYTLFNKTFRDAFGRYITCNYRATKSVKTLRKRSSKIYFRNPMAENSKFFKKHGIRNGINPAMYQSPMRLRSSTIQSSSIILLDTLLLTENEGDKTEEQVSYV
Sequence of Voltage-gated inwardly rectifying potassium channel KCNH2 (Q12809 whole entry): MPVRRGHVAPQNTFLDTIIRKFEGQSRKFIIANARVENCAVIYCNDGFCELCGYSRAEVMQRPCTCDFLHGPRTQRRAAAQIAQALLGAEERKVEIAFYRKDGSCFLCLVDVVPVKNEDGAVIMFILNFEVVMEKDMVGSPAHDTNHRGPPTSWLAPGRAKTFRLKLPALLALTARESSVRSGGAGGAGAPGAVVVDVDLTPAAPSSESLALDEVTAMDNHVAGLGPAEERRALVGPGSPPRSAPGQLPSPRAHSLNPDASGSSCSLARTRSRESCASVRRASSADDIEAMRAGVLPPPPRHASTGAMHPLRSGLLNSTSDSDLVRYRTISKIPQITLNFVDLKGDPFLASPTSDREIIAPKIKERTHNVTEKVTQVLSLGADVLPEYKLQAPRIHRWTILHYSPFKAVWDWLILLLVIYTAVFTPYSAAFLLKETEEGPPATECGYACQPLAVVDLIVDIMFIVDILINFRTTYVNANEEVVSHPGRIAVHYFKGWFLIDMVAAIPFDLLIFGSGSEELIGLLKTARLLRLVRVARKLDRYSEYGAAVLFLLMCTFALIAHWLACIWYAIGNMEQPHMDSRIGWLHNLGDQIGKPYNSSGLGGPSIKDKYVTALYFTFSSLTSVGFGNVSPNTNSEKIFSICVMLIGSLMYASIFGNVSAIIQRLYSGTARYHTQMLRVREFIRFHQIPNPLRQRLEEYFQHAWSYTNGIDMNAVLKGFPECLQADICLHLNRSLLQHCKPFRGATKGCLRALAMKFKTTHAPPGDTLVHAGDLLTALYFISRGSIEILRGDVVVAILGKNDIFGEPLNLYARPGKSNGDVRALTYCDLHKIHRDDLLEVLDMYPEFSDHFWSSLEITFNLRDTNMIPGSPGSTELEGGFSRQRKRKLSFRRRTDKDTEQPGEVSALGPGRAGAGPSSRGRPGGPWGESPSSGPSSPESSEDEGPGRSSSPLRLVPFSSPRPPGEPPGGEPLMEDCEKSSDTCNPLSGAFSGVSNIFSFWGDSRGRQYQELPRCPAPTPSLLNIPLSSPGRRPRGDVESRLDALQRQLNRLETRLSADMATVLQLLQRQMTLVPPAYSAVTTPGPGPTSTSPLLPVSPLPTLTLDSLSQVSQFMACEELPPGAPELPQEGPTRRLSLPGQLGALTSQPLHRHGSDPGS
Sequence of D(1A) dopamine receptor (P21728 whole entry): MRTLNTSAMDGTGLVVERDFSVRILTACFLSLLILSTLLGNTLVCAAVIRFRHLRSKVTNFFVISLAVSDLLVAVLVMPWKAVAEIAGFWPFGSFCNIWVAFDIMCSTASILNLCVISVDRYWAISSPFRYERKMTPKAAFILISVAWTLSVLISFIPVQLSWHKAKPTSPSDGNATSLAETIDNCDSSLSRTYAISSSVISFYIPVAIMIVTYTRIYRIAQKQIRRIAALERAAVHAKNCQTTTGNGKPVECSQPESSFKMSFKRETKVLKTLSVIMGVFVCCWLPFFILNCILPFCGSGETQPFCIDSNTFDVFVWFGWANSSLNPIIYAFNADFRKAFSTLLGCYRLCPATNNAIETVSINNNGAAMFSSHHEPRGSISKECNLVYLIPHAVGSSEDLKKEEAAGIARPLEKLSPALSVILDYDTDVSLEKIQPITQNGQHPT
Sequence of cGMP-inhibited 3',5'-cyclic phosphodiesterase 3A (Q14432 whole entry): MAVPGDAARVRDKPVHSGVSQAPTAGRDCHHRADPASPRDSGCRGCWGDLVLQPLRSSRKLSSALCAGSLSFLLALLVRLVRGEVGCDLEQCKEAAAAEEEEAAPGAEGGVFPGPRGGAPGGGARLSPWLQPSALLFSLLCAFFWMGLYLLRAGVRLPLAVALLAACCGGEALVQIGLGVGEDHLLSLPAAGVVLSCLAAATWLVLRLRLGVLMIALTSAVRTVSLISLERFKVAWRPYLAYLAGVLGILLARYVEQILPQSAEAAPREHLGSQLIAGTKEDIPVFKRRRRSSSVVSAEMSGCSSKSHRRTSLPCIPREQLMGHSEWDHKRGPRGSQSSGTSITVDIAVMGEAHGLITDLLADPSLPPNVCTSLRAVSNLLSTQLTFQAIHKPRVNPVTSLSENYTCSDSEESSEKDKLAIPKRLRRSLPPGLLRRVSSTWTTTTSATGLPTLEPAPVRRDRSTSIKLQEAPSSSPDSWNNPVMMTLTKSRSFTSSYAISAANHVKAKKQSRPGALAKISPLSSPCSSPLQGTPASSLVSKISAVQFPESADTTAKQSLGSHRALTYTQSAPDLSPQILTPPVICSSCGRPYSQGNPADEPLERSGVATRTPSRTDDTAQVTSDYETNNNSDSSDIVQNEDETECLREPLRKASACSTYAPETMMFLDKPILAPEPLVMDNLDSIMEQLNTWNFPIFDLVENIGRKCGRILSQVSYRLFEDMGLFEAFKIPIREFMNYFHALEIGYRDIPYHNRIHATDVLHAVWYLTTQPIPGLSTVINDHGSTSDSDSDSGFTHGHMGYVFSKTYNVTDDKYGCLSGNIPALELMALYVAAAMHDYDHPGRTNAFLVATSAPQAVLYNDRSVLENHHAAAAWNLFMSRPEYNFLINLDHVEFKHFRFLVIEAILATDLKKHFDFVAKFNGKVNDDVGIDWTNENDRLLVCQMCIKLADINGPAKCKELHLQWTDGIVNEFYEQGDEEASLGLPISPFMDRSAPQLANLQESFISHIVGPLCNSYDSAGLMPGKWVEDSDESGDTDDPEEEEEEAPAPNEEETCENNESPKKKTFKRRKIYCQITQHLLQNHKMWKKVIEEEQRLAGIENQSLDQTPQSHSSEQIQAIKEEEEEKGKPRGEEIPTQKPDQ
Sequence of Prostaglandin G/H synthase 1 (P23219 whole entry): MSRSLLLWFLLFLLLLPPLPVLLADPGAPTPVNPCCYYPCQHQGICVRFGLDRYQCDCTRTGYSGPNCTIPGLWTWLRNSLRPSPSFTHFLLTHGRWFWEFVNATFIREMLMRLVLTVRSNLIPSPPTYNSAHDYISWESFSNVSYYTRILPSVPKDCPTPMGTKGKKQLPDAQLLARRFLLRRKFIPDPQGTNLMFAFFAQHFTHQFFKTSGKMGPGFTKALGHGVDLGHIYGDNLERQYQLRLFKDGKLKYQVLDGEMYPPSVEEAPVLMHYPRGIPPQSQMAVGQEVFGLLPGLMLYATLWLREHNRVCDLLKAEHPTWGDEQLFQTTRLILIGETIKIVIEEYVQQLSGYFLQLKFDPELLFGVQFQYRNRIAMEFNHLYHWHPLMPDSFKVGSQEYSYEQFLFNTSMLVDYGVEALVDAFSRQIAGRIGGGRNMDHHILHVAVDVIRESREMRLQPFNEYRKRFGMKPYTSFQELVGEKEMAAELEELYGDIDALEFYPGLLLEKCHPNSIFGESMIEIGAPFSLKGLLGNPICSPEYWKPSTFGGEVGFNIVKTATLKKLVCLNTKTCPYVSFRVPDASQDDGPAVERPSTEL
Sequence of Mu-type opioid receptor (P35372 whole entry): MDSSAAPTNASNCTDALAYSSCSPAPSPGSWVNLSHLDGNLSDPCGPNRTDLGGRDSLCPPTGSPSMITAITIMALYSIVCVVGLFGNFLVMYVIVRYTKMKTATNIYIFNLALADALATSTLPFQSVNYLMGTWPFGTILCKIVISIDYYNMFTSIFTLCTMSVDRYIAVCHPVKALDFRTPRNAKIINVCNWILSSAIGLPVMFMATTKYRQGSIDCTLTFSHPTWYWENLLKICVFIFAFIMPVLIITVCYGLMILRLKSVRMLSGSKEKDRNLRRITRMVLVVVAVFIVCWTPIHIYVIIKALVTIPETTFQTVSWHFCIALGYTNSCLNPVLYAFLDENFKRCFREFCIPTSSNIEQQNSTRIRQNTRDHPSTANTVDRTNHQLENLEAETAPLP

Row | SMILES | AC50 [1] [µM] | AC50 [2] [µM] | AC50 (D(1A) dopamine receptor) [µM] | AC50 [3] [µM] | AC50 (Prothrombin) [µM] | AC50 (Estrogen receptor) [µM] | AC50 [4] [µM] | AC50 [5] [µM] | AC50 [6] [µM] | AC50 [7] [µM] | AC50 (Mu-type opioid receptor) [µM] | AC50 (Histamine H3 receptor) [µM] | AC50 [8] [µM]
1 | Nc1ccc(C(=O)O)cc1 [AMINOBENZOIC ACID] | > 30 | > 30 | > 30 | > 30 | > 30 | > 30 | > 30 | > 30 | 2.18 | > 30 | > 30 | > 30 | > 30
2 | O=C1CN=C(c2ccccc2)c2c(sc3c2CCCC3)N1 [BENTAZEPAM] | > 30 | > 30 | > 30 | > 30 | > 30 | > 30 | 1.55 | 23.9 | > 1 | > 30 | > 30 | > 30 | > 30
3 | O=C(O)CCCN1CCC(O[C@@H](c2ccc(Cl)cc2)c2ccccn2)CC1 [BEPOTASTINE] | > 30 | > 30 | > 30 | > 30 | > 30 | > 30 | > 30 | > 30 | > 30 | > 30 | > 30 | > 30 | > 30
4 | CN(Cc1cc(Br)cc(Br)c1N)C1CCCCC1 [BROMHEXINE] | 20 | > 30 | > 30 | > 30 | > 30 | > 30 | > 30 | > 30 | > 30 | > 30 | > 30 | > 30 | > 30
5 | COCC1=C(C(=O)OC(C)OC(=O)OC(C)C)N2C(=O)[C@@H](NC(=O)/C(=N\OC)c3csc(N)n3)[C@H]2SC1 (stereo partly drawn) [CEFPODOXIME PROXETIL] | > 30 | > 30 | > 30 | > 30 | > 30 | > 30 | > 30 | > 30 | > 30 | > 30 | > 30 | > 30 | > 30
6 | CN1CCN(C(c2ccccc2)c2ccccc2)CC1 [CYCLIZINE] | 20 | > 30 | 14.4 | 0.334 | > 30 | > 30 | > 30 | 3.47 | > 30 | > 30 | 24.9 | > 30 | > 30
7 | NS(=O)(=O)c1cc2c(cc1Cl)NC(C1CC3C=CC1C3)NS2(=O)=O (stereo not drawn) [CYCLOTHIAZIDE] | > 30 | > 30 | > 30 | > 30 | > 30 | > 30 | > 30 | > 30 | > 30 | > 30 | > 30 | > 30 | > 30
8 | Nc1nc(-n2cc(C(=O)O)c(=O)c3cc(F)c(N4CC(O)C4)c(Cl)c32)c(F)cc1F [DELAFLOXACIN] | > 30 | > 30 | > 30 | > 30 | > 30 | > 30 | > 30 | > 30 | > 30 | > 30 | > 30 | > 30 | > 30
9 | COc1ccc(-c2cc(=O)c3c(O)cc(O[C@@H]4O[C@H](CO[C@@H]5O[C@@H](C)[C@H](O)[C@@H](O)[C@H]5O)[C@@H](O)[C@H](O)[C@H]4O)cc3o2)cc1O [DIOSMIN] | > 30 | > 30 | > 30 | > 30 | > 30 | > 30 | > 30 | > 30 | > 30 | > 30 | > 30 | > 30 | > 30
10 | O=C(Nc1ccccc1)OCC(CN1CCCCC1)OC(=O)Nc1ccccc1 (stereo not drawn) [DIPERODON] | 5.4 | > 30 | > 30 | > 30 | > 30 | > 30 | > 30 | > 30 | > 30 | > 30 | 11.2 | > 30 | > 30
11 | CCOc1ccc(/C=C2\NCCc3cc(OCC)c(OCC)cc32)cc1OCC [DROTAVERINE] | 2.9 | > 30 | > 30 | 28.4 | > 30 | > 30 | > 30 | 5.83 | > 10 | > 30 | > 10 | > 30 | > 30
12 | CC1=NN(c2ccccc2)C(=O)C1 [EDARAVONE] | > 30 | > 30 | > 30 | 26.5 | > 30 | > 30 | > 30 | > 30 | 12.5 | > 30 | > 30 | > 30 | > 30
13 | O=[N+]([O-])c1cncn1CCN1CCOCC1 [NIMORAZOLE] |  | > 30 | > 30 | > 30 | > 30 | > 30 | > 30 | > 30 | > 30 | > 30 | > 30 | > 30 | > 30
